Source: paper PMC5344539, “Nematode neuropeptides as transgenic nematicides” (PLoS Pathogens, 2017)
Entries after “also recorded” stand apart in the source; their conditions may differ.

Assays:
[1] = tested on: G. pallida J2s; assay: Chemosensory (chemotaxis) assay of uNLP pre-treated J2s towards tomato root exudate; format: in vivo, Globodera pallida; conditions: for effect on chemosensation (in words): 100 μM uNLP, 24 h, relative to controls; for CI score: Fig 2A, J2s incubated in 100 μM uNLP for 24 h, tomato cv. Moneymaker root exudate vs water agar plugs, counted after 3 h, mean of 10 replicates of 100 J2s, control 0.4154
Protocol: (§1) Predicted uNLPs from both M. incognita and G. pallida were synthesised by EZBiolab and dissolved into pH adjusted ddH2O to make a 5 mM stock which was aliquoted and stored at -20°C. J2s of both M. incognita and G. pallida were incubated for 24 hours in 200 μl of each peptide in a 24 well plate (SPL Lifesciences, South Korea) at a defined concentration.
(§2) A 60 mm Petri dish was divided into two segments, a positive and a negative side, with a 0.5 cm 'dead zone' either side of the centre point. The petri dish was filled with 15 ml of 0.25% w/v agar which was allowed to solidify. 3 ml of 0.25% w/v agar slurry in spring water (pH 7, agitated with a magnetic stirrer for several hours to give a smooth consistency) was added to the petri dish and spread evenly over the surface. Root diffusate (attractant) and water only (control) 0.25% agar plugs were embedded in the agar slurry, either side of the assay arena. Root diffusate was collected from 10 tomato plants, aged 3–6 weeks in 1 litre pots, by pouring 500 ml of ddH20 through the soil three times. Diffusate from each plant was combined, filter sterilised and stored at 4°C for a maximum of 1 month. Root diffusate agar plugs were made by melting 1.25% agar in ddH20, cooling to 50°C before mixing with 4 parts of root diffusate. The agar was then allowed to solidify at room temperature. 100 uNLP pre-treated M. incognita or G. pallida J2s were added by pipette to the centre of the plate. J2s which moved out of the 'dead zone' after 3 hours were counted and their location (+/-) scored. The distribution of J2s were used to create a chemotaxis index for each plate, which formed one replicate, a total of 10 replicates where completed for each uNLP treatment.

[2] = tested on: G. pallida J2s; assay: Serotonin-induced stylet thrusting assay; format: in vivo, Globodera pallida; conditions: for effect on serotonergic-induced stylet thrusting (in words): 100 μM uNLP, 24 h, 2 mM serotonin, relative to controls; for % Thrusting: Fig 2C, J2s incubated in 100 μM uNLP for 24 h, stylet thrusts in 2 mM serotonin, counted 1 min, normalised to control = 100%, mean, at least 30 J2s
Protocol: as §1
(§3) Stylet thrusting assays where performed by incubating 100 M. incognita or G. pallida J2s for 15 minute in 5 mM or 2 mM serotonin (Sigma Aldrich, USA), respectively. J2s were placed on a glass slide and stylet thrusts were counted for randomly selected J2s, for 1 minute each. Counts for a given cohort of J2s were taken in a maximum interval of 15 minutes. Longer counting intervals, making for longer serotonin incubations, yielded inconsistent results. At least 30 J2s were counted for each neuropeptide treatment.

[3] = tested on: G. pallida J2s; assay: Tomato invasion assay with uNLP pre-treated J2s; format: in vivo, Globodera pallida; conditions: Fig 2B; 500 J2s incubated in 100 μM uNLP for 24 h; single tomato seedling, 24 h at 18°C; normalised to negative control = 100%; mean
Protocol: as §1
(§4) Tomato seeds were sterilised with 2.5% NaOCl for 15 minutes, washed 5 times in ddH20 and germinated on 0.5% Murashige and Skoog plates at 23°C. […] Invasion assays were performed by mixing 500 pre-treated M. incognita or G. pallida J2s with agar slurry and a single tomato seedling (2 days post germination) in a 6 well plate. Assays were left at 23°C for 24 hours in the case of M. incognita and at 18°C for 24 hours in the case of G. pallida under a 16 hour light and 8 hour darkness cycle. Seedlings were stained using acid fuschin [69] and the number of nematodes within the roots counted. At least five seedlings were used for M. incognita infections assays, with at least 15 seedlings used for G. pallida infections assays (due to increased variation).

[4] = tested on: M. incognita J2s; assay: Tomato invasion assay with uNLP pre-treated J2s; format: in vivo, Meloidogyne incognita; conditions: for effect on host invasion (in words): 100 μM uNLP, 24 h, tomato cv. Moneymaker, relative to controls; for % Invasion: Fig 1B, 500 J2s incubated in 100 μM uNLP for 24 h, single tomato seedling, 24 h at 23°C, normalised to negative control = 100%, mean
Protocol: as §1, §4

[5] = tested on: M. incognita J2s; assay: Serotonin-induced stylet thrusting assay; format: in vivo, Meloidogyne incognita; conditions: for effect on serotonergic-induced stylet thrusting (in words): 100 μM uNLP, 24 h, 5 mM serotonin, relative to controls; for % Thrusting: Fig 1C, J2s incubated in 100 μM uNLP for 24 h, stylet thrusts in 5 mM serotonin, counted 1 min, normalised to control = 100%, mean, at least 30 J2s
Protocol: as §1, §3

[6] = tested on: M. incognita J2s; assay: Chemosensory (chemotaxis) assay of uNLP pre-treated J2s towards tomato root exudate; format: in vivo, Meloidogyne incognita; conditions: for effect on chemosensation (in words): 100 μM uNLP, 24 h, relative to controls
Protocol: as §1, §2

Sequence | CI score [1] | % Invasion [3] [%] | effect on host invasion (in words) [4] | % Invasion [4] [%] | effect on serotonergic-induced stylet thrusting (in words) [5] | % Thrusting [5] [%] | effect on chemosensation (in words) [6] | further results
SFDSFTGSGFTGLD [Gp-NLP-15c, predicted unamidated NLP of G. pallida, synthesised] | -0.227 |  |  |  |  |  |  | effect on chemosensation (in words) [1]: inhibit chemosensation; effect on serotonergic-induced stylet thrusting (in words) [2]: modulating stylet thrusting rates; % Thrusting [2]: 56.07%
GGARAFNFFAPDE [Gp-NLP-21b, predicted unamidated NLP of G. pallida, synthesised] | -0.117 | 6.90 |  |  |  |  |  | 
ALDMLEGDDFIGMQ [Mi-NLP-14a, predicted unamidated NLP of M. incognita, synthesised] |  |  | does inhibit host invasion | 44.61 | inhibition; also recorded: reduces stylet thrusting rate | 61.60 |  | 
AFDSFAGNGFTGFD [Mi-NLP-15f, predicted unamidated NLP of M. incognita, synthesised] |  |  | does not impact on host invasion |  | reduces stylet thrusting rate | 75.18 | inhibit chemosensation | CI score ([6]; Fig 1A, J2s incubated in 100 μM uNLP for 24 h, tomato cv. Moneymaker root exudate vs water agar plugs, counted after 3 h, mean of 10 replicates of 100 J2s, control 0.4426): -0.05
AGGRYFMRHFDDSPFAGWMA [Gp-NLP-21g, predicted unamidated NLP of G. pallida, synthesised] | -0.01357 | 214.80 |  |  |  |  |  | 
SGIQTFRDDYDEKQAGEL [Gp-NLP-21d, predicted unamidated NLP of G. pallida, synthesised] |  | 2.01 |  |  |  |  |  | 
AAENFDENNDIN [Mi-NLP-18d, predicted unamidated NLP of M. incognita, synthesised] |  |  | reduce host invasion rates | 34.21 | agonise serotonergic stylet thrusting | 147.70 | no negative impact on J2 chemosensory ability | 
GGARAFFGDADGPFNSASYWAP [Gp-NLP-21h, predicted unamidated NLP of G. pallida, synthesised] | -0.01564 |  |  |  |  |  |  | effect on chemosensation (in words) [1]: inhibit chemosensation; effect on serotonergic-induced stylet thrusting (in words) [2]: modulating stylet thrusting rates; % Thrusting [2]: 116.80%
ALDMMEGDDFIGL [Mi-NLP-14c, predicted unamidated NLP of M. incognita, synthesised] |  |  | reduce host invasion rates | 20.96 | excitation; also recorded: agonise serotonergic stylet thrusting | 134.70 | no negative impact on J2 chemosensory ability | 
GMRNFAFA [Mi-NLP-18b, predicted unamidated NLP of M. incognita, synthesised] |  |  | reduce host invasion rates | 47.81 | agonise serotonergic stylet thrusting | 146.60 | no negative impact on J2 chemosensory ability | 
GGTRAFNFFVSDALPSSYE [Gp-NLP-21c, predicted unamidated NLP of G. pallida, synthesised] |  | 14.07 |  |  |  |  |  | 
GGARAFNFFAPPDE [Gp-NLP-21a, predicted unamidated NLP of G. pallida, synthesised] |  | 178.90 |  |  |  |  |  | 
GGARAFNGAEETLLNVANLA [Gp-NLP-21i, predicted unamidated NLP of G. pallida, synthesised] | -0.1733 |  |  |  |  |  |  | effect on chemosensation (in words) [1]: inhibit chemosensation; effect on serotonergic-induced stylet thrusting (in words) [2]: modulating stylet thrusting rates; % Thrusting [2]: 117.70%
